Source: patent US10793563B2, “GCN2 inhibitors and uses thereof” (Merck Patent GmbH, priority 2018, dated 2020)

The compounds below were run against GCN2 kinase (Homo sapiens (Human), UniProt Q9P2K8) (assay: GCN2 Enzyme Inhibition Assay (Transcreener ADP2 fluorescence polarization)). Settings: 280 μM ATP, 200 μM (RS)7 peptide, 4 nM GCN2, 25° C.
Assay type: biochemical
Outline: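 At 25 °C, GCN2 kinase (typical final concentration 4 nM) and (RS)7 peptide in Tris-HCl pH 7.5 buffer with MgCl2, NaCl and DTT were preincubated with compound for 10 min, then ATP was added for a 1 h reaction. ADP was read by FP with antibody/Alexa633 tracer. Non-linear tight-binding analysis gave IC50 and apparent Ki.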

Sequence of GCN2 kinase (Q9P2K8 whole entry): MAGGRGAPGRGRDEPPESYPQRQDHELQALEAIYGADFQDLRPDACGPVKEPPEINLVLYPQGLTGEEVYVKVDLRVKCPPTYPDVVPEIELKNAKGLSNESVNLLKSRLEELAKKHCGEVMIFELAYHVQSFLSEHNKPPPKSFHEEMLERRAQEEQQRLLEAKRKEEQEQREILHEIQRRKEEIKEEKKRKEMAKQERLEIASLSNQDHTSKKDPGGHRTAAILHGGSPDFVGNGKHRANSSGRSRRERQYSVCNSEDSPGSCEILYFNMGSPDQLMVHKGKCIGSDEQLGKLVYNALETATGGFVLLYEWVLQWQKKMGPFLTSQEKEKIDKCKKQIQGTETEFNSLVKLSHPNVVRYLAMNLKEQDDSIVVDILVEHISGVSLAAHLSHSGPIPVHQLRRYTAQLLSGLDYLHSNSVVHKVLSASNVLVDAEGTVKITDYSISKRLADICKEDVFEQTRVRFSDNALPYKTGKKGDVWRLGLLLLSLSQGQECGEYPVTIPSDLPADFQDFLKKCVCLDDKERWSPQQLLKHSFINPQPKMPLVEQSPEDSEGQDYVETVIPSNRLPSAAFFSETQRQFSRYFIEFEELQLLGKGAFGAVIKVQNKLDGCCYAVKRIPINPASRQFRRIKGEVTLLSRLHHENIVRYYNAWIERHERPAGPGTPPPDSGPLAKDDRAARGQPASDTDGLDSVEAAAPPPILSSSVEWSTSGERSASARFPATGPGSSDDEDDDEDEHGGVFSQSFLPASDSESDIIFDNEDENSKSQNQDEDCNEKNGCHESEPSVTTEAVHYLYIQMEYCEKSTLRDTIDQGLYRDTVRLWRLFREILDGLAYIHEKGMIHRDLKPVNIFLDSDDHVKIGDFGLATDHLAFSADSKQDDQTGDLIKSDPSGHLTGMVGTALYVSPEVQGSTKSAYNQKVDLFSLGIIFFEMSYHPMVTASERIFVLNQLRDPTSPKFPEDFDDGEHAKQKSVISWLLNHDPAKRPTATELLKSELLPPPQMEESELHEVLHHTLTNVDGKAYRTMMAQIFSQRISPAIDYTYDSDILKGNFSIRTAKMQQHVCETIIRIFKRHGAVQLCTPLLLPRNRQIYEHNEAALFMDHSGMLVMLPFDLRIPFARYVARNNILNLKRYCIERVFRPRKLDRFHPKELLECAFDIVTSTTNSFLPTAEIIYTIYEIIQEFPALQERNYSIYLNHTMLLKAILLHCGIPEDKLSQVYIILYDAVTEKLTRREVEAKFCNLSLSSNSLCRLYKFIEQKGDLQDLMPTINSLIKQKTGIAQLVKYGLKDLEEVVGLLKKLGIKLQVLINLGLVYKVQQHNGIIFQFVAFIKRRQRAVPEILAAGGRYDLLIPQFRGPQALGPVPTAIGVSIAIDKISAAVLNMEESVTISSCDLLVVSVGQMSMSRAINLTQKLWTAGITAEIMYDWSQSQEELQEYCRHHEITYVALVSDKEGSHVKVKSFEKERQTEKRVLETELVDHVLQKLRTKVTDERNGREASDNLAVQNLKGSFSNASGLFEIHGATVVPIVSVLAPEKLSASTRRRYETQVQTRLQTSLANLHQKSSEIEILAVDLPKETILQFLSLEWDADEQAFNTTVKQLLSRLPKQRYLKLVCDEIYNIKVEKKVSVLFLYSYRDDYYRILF

SMILES	IC50
NC(=O)[C@H]1CN(c2ccnc(-c3cnc4ccc(C(F)(F)F)cn34)n2)CCO1 [I-151, (R)-4-(2-(6-(trifluoromethyl)imidazo[1,2-a]pyridin-3-yl)pyrimidin-4-yl)morpholine-2-carboxamide]	100 to 1000 nM
C[C@H]1[C@H](C(N)=O)NCCN1c1ccnc(-c2cnc3cc(F)c(C4CC4)cn23)n1 [I-454, (2R,3 S)-4-(2-(6-cyclopropyl-7-fluoroimidazo[1,2-a]pyridin-3-yl)pyrimidin-4-yl)-3-methylpiperazine-2-carboxamide]	10 to 100 nM
C[C@@H]1[C@H](C(N)=O)NCCN1c1ccnc(-c2cnc3ccc(C(F)(F)F)cn23)n1 [I-434, (2R,3R)-3-methyl-4-(2-(6-(trifluoromethyl)imidazo[1,2-a]pyridin-3-yl)pyrimidin-4-yl)piperazine-2-carboxamide]	100 to 1000 nM
Cc1nn(C)cc1C(=O)N1CCN(c2ccnc(-c3cnc4ccc(C(F)(F)F)cn34)n2)C[C@H]1C [I-479, (R)-(1,3-dimethyl-1H-pyrazol-4-yl)(2-methyl-4-(2-(6-(trifluoromethyl)imidazo[1,2-a]pyridin-3-yl)pyrimidin-4-yl)piperazin-1-yl)methanone]	100 to 1000 nM
C[C@H]1[C@@H](C(N)=O)NCCN1c1ccnc(-c2cnc3ccc(C(F)(F)F)cn23)n1 [I-435, (2S,3 S)-3-methyl-4-(2-(6-(trifluoromethyl)imidazo[1,2-a]pyridin-3-yl)pyrimidin-4-yl)piperazine-2-carboxamide]	< 10 nM
NC(=O)CC1CCCN(c2ccnc(-c3cnc4ccc(Cl)cn34)n2)C1 (stereo not drawn) [I-162, 2-(1-(2-(6-chloroimidazo[1,2-a]pyridin-3-yl)pyrimidin-4-yl)piperidin-3-yl)acetamide]	10 to 100 nM
Cc1[nH]ncc1[C@H]1CN(c2ccnc(-c3cnc4cc(F)c(Cl)cn34)n2)C[C@H](C)O1 [I-539, (2S,6S)-4-(2-(6-chloro-7-fluoroimidazo[1,2-a]pyridin-3-yl)pyrimidin-4-yl)-2-methyl-6-(5-methyl-1H-pyrazol-4-yl)morpholine]	10 to 100 nM
Cc1oncc1C(=O)N1CCN(c2ccnc(-c3cnc4ccc(C(F)(F)F)cn34)n2)C[C@H]1c1cn[nH]c1 [I-550, (R)-(2-(1H-pyrazol-4-yl)-4-(2-(6-(trifluoromethyl)imidazo[1,2-a]pyridin-3-yl)pyrimidin-4-yl)piperazin-1-yl)(5-methylisoxazol-4-yl)methanone]	100 to 1000 nM
Cc1nnc(C2CN(c3ccnc(-c4cnc5ccc(C(F)(F)F)cn45)n3)CCN2)[nH]1 (stereo not drawn) [I-337, 3-(4-(3-(5-methyl-4H-1,2,4-triazol-3-yl)piperazin-1-yl)pyrimidin-2-yl)-6-(trifluoromethyl)imidazo[1,2-a]pyridine]	100 to 1000 nM
O=C(C1CCOCC1)N1CCN(c2ccnc(-c3cnc4ccc(C(F)(F)F)cn34)n2)CC1c1cn[nH]c1 (stereo not drawn) [I-487, (2-(1H-pyrazol-4-yl)-4-(2-(6-(trifluoromethyl)imidazo[1,2-a]pyridin-3-yl)pyrimidin-4-yl)piperazin-1-yl)(tetrahydro-2H-pyran-4-yl)methanone]	100 to 1000 nM
FC(F)(F)c1ccc2ncc(-c3nccc(N4CCN(C5CCOCC5)C(c5cn[nH]c5)C4)n3)n2c1 (stereo not drawn) [I-456, 3-(4-(3-(1H-pyrazol-4-yl)-4-(tetrahydro-2H-pyran-4-yl)piperazin-1-yl)pyrimidin-2-yl)-6-(trifluoromethyl)imidazo[1,2-a]pyridine]	10 to 100 nM
N#CC1(C(=O)N2CCN(c3nccc(-c4cnc5ccc(C(F)(F)F)cn45)n3)C[C@@H]2c2cn[nH]c2)CC1 (stereo in doubt) [I-551, 1-(2-(1H-pyrazol-4-yl)-4-(4-(6-(trifluoromethyl)imidazo[1,2-a]pyridin-3-yl)pyrimidin-2-yl)piperazine-1-carbonyl)cyclopropane-1-carbonitrile]	10 to 100 nM
C[C@@H]1CN(c2ccnc(-c3cnc4ccc(C(F)(F)F)cn34)n2)C[C@H](C)N1C(=O)c1ccncc1 [I-483, (cis-2,6-dimethyl-4-(2-(6-(trifluoromethyl)imidazo[1,2-a]pyridin-3-yl)pyrimidin-4-yl)piperazin-1-yl)(pyridin-4-yl)methanone]	100 to 1000 nM

Further lines, results first:

IC50	SMILES
100 to 1000 nM	NC(=O)[C@@H]1CN(c2ccnc(-c3cnc4ccc(Cl)cn34)n2)CCN1C1CC1 [I-350, (s)-4-(2-(6-chloroimidazo[1,2-a]pyridin-3-yl)pyrimidin-4-yl)-1-cyclopropylpiperazine-2-carboxamide]
100 to 1000 nM	CC1(O)CC(C(=O)N2CCN(c3ccnc(-c4cnc5ccc(C(F)(F)F)cn45)n3)CC2c2cn[nH]c2)C1 (stereo not drawn) [I-509, (2-(1H-pyrazol-4-yl)-4-(2-(6-(trifluoromethyl)imidazo[1,2-a]pyridin-3-yl)pyrimidin-4-yl)piperazin-1-yl)(3-hydroxy-3-methylcyclobutyl)methanone]
10 to 100 nM	FC1(F)CCC(N2CCN(c3ccnc(-c4cnc5ccc(C(F)(F)F)cn45)n3)CC2c2cn[nH]c2)CC1 (stereo not drawn) [I-460, 3-(4-(4-(4,4-difluorocyclohexyl)-3-(1H-pyrazol-4-yl)piperazin-1-yl)pyrimidin-2-yl)-6-(trifluoromethyl)imidazo[1,2-a]pyridine]
100 to 1000 nM	Cc1nn(C)cc1C(=O)N1CCN(c2ccnc(-c3cnc4ccc(C(F)(F)F)cn34)n2)C[C@@H]1C [I-480, (S)-(1,3-dimethyl-1H-pyrazol-4-yl)(2-methyl-4-(2-(6-(trifluoromethyl)imidazo[1,2-a]pyridin-3-yl)pyrimidin-4-yl)piperazin-1-yl)methanone]
10 to 100 nM	CC1(C(N)=O)CCN(c2ccnc(-c3cnc4ccc(C(F)(F)F)cn34)n2)CC1 [I-188, 4-methyl-1-(2-(6-(trifluoromethyl)imidazo[1,2-a]pyridin-3-yl)pyrimidin-4-yl)piperidine-4-carboxamide]
10 to 100 nM	Cc1nnc(C)n1[C@H]1C[C@@H](C)CN(c2nccc(-c3cnc4ccc(C(F)(F)F)cn34)n2)C1 [I-466, 3-(2-((3S,5R)-3-(3,5-dimethyl-4H-1,2,4-triazol-4-yl)-5-methylpiperidin-1-yl)pyrimidin-4-yl)-6-(trifluoromethyl)imidazo[1,2-a]pyridine]
100 to 1000 nM	NC(=O)C1CCCN(c2nc(-c3cnc4ccc(C(F)(F)F)cn34)ncc2F)C1 (stereo in doubt) [I-282, (S)-1-(5-fluoro-2-(6-(trifluoromethyl)imidazo[1,2-a]pyridin-3-yl)pyrimidin-4-yl)piperidine-3-carboxamide]
10 to 100 nM	Cc1cnc(N2CCC[C@H](C(N)=O)C2)nc1-c1cnc2ccc(Cl)cn12 [I-174, (S)-1-(4-(6-chloroimidazo[1,2-a]pyridin-3-yl)-5-methylpyrimidin-2-yl)piperidine-3-carboxamide]

Same assay, conditions: Ki(app); 280 μM ATP, 200 μM (RS)7 peptide, 4 nM GCN2, 25° C.

Ki	SMILES
< 10 nM	O=C1NCCC2CN(c3ccnc(-c4cnc5ccc(Cl)cn45)n3)CCN12 (stereo not drawn) [I-96, 2-(2-{6-chloroimidazo[1,2-a]pyridin-3-yl}pyrimidin-4-yl)-octahydro-1H-pyrazino[1,2-c]pyrimidin-6-one]
100 to 1000 nM	Cn1cc(NC(=O)[C@H]2CCCN(c3ccnc(-c4cnc5cc(F)c(Cl)cn45)n3)C2)cn1 [I-77, (S)-1-[2-(6-Chloro-7-fluoro-imidazo[1,2-a]pyridin-3-yl)-pyrimidin-4-yl]-piperidine-3-carboxylic acid (1-methyl-1H-pyrazol-4-yl)-amide]
< 10 nM	FC(F)(F)c1ccc2ncc(-c3nccc(N4CCCC(c5cn[nH]c5)C4)n3)n2c1 (stereo not drawn) [I-101, 4-[3-(1H-pyrazol-4-yl)piperidin-1-yl]-2-[6-(trifluoromethyl)imidazo[1,2-a]pyridin-3-yl]pyrimidine]
